Experimental data from ChEMBL document CHEMBL1153274, “Microwave-assisted synthesis of N-substituted cyclic imides and their evaluation for anticancer and anti-inflammatory activities” (2009).

How the values were obtained:
Format in all cases: functional
HEp-2 = test: Cytotoxicity against human Hep2 cells after 48 hrs by SRB assay
SW-620 = test: Cytotoxicity against human SW620 cells after 48 hrs by SRB assay
Rattus norvegicus [1] = test: Antiinflammatory activity against carrageenan-induced paw edema in albino rat at 50 mg/kg, po administered 30 mins before carrageenan challenge measured after 1 to 3 hrs
SK-N-SH = test: Cytotoxicity against human SK-N-SH cells after 48 hrs by SRB assay
COLO 205 = test: Cytotoxicity against human COLO205 cells after 48 hrs by SRB assay
Rattus norvegicus [2] = test: Antiinflammatory activity against carrageenan-induced paw edema in albino rat at 100 mg/kg, po administered 30 mins before carrageenan challenge measured after 1 to 3 hrs
Rattus norvegicus [3] = test: Antiinflammatory activity against carrageenan-induced paw edema in albino rat at 25 mg/kg, po administered 30 mins before carrageenan challenge measured after 1 to 3 hrs

Compound	growth inhibition (GI) (HEp-2) [%]	growth inhibition (GI) (SW-620) [%]	Activity (Rattus norvegicus [1]) [%]	growth inhibition (GI) (SK-N-SH) [%]	growth inhibition (GI) (COLO 205) [%]	Activity (Rattus norvegicus [2]) [%]	Activity (Rattus norvegicus [3]) [%]
O=C1c2nc[nH]c2C(=O)N1CCN1CCCCC1	18	17	0	22	10		
O=C1Cc2ccccc2CC(=O)N1Cc1ccco1	17	17	22	11	10		
O=C1c2nc[nH]c2C(=O)N1Cc1ccccn1	17	33	24	11	6		
O=C1c2nc[nH]c2C(=O)N1Cc1ccncc1	26	43	21	1	3		
O=C1Cc2ccccc2CC(=O)N1Cc1ccccn1	11	37	32	0	0		
O=C1Cc2ccccc2CC(=O)N1Cc1cccnc1	6	22	40	0	0	67	19
O=C1Cc2ccccc2CC(=O)N1Cc1cccs1	19	52	34	1	4		
O=C1c2nccnc2C(=O)N1CCN1CCCCC1	12	9	16	10	2		
O=C1Cc2ccccc2CC(=O)N1CCN1CCCCC1	15	45	21	0	0		
O=C1c2nccnc2C(=O)N1Cc1ccccn1	16	33	29	11	6		
O=C1c2ccncc2C(=O)N1CCN1CCCCC1	13	0	12	13	1		
O=C1c2ccncc2C(=O)N1Cc1ccco1	8	45	24	0	0		
O=C1c2ccncc2C(=O)N1Cc1cccs1	24	53	35	12	4		
O=C1c2nccnc2C(=O)N1Cc1ccncc1	11	36	32	0	1		
O=C1c2ccncc2C(=O)N1Cc1ccccn1	24	33	27	10	4		
O=C1c2nccnc2C(=O)N1Cc1cccs1	16	46	31	12	7		
O=C1c2nc[nH]c2C(=O)N1Cc1cccs1	15	23	32	2	3		
O=C1c2nccnc2C(=O)N1Cc1ccco1	11	12	0	15	7		
O=C1c2ccncc2C(=O)N1Cc1ccncc1	12	20	33	9	12		
O=c1[nH]cc(F)c(=O)[nH]1 [FLUOROURACIL]	40	44		56	25		
CO[C@@]12[C@H](COC(N)=O)C3=C(C(=O)C(C)=C(N)C3=O)N1C[C@@H]1N[C@@H]12 [MITOMYCIN]	60	29		85	41		
CCCCC1C(=O)N(c2ccccc2)N(c2ccccc2)C1=O [PHENYLBUTAZONE]			37			63	17
